Values joined by “and” are separate entries in the source; they are usually repeats but may differ in a detail not shown here. Equal values may be shown once.
Assays:
[1] = Volume of distribution at steady state in Sprague-Dawley rat at 3 mg/kg, iv measured up to 24 hrs by LC-MS/MS analysis; format: ADME, organism-based; settings: in vivo, read-out: Vdss
[2] = AUC (0 to infinity) in liver to plasma of Sprague-Dawley rat at 3 mg/kg,po; format: ADME, organism-based; settings: in vivo
[3] = AUC in Beagle dog at 5 mg/kg, po measured upto 24 hrs by LC/MS-MS analysis; format: ADME, organism-based, Canis lupus familiaris; settings: in vivo
[4] = Oral bioavailability in Sprague-Dawley rat at 3 mg/kg by LC-MS/MS analysis; format: ADME, organism-based; settings: in vivo
[5] = Half life in Sprague-Dawley rat at 5 mg/kg, po by LC-MS/MS analysis; format: ADME, organism-based; settings: in vivo
[6] = Clearance in Sprague-Dawley rat at 0.5 mg/kg, iv by LC-MS/MS analysis; format: ADME, organism-based; settings: in vivo
[7] = Cmax in Sprague-Dawley rat at 3 mg/kg, po and measured upto 24 hrs by LC-MS/MS analysis; format: ADME, organism-based; settings: in vivo
[8] = AUC in Sprague-Dawley rat at 5 mg/kg, po measured upto 24 hrs by LC/MS/MS analysis; format: ADME, organism-based; settings: in vivo
[9] = Clearance in Beagle dog at 2 mg/kg, iv by LC-MS/MS analysis; format: ADME, organism-based, Canis lupus familiaris; settings: in vivo
[10] = Clearance in Sprague-Dawley rat at 2 mg/kg, iv by LC-MS/MS analysis; format: ADME, organism-based; settings: in vivo
[11] = Oral bioavailability in Sprague-Dawley rat; format: ADME, organism-based; settings: in vivo
[12] = AUC in Beagle dog at 2 mg/kg, po; format: ADME, organism-based, Canis lupus familiaris; settings: in vivo
[13] = Oral bioavailability in Beagle dog at 2 mg/kg; format: ADME, organism-based, Canis lupus familiaris; settings: in vivo
[14] = AUC in Sprague-Dawley rat at 2 mg/kg, po; format: ADME, organism-based; settings: in vivo
[15] = target: T1, Non-structural protein 4b (Hepacivirus hominis, UniProt F5B4I0); assay: Inhibition of Hepatitis C virus genotype 1b NS4B
T1 sequence (F5B4I0 whole entry): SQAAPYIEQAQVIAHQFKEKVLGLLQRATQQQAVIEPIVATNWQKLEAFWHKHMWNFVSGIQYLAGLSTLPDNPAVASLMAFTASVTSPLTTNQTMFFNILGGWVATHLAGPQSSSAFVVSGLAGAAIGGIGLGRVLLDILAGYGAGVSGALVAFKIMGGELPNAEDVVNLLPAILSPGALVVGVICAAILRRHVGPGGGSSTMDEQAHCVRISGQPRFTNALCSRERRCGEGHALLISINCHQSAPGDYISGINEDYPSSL

Hepatitis C virus [16] = assay: Antiviral activity against Hepatitis C virus infected in human Huh7.5 cells pretreated […] for 2 hrs followed by viral infection for 1 hrs by plaque assay; format: functional, organism-based, Hepacivirus hominis
Hepatitis C virus [17] = assay: Antiviral activity against Hepatitis C virus genotype 1a infected in human Huh-7 cells assessed as reduction in viral infection; format: functional, organism-based, Hepacivirus hominis
Hepatitis C virus [18] = assay: Antiviral activity against Hepatitis C virus genotype 1b infected in human Huh-7 cells assessed as reduction in viral infection; format: functional, organism-based, Hepacivirus hominis
[19] = Half life in Beagle dog at 5 mg/kg, po by LC-MS/MS analysis; format: ADME, organism-based, Canis lupus familiaris; settings: in vivo
[20] = target: T1, Non-structural protein 4b; assay: Inhibition of Hepatitis C virus genotype 5a NS4B
[21] = target: Hepatitis C virus NS5B RNA-dependent RNA polymerase (Hepatitis C virus, UniProt Q8JXU8); assay: Binding affinity to Hepatitis C virus genotype 2a NS5B polymerase assessed as inhibition constant
Hepatitis C virus NS5B RNA-dependent RNA polymerase, sequence (Q8JXU8 whole entry): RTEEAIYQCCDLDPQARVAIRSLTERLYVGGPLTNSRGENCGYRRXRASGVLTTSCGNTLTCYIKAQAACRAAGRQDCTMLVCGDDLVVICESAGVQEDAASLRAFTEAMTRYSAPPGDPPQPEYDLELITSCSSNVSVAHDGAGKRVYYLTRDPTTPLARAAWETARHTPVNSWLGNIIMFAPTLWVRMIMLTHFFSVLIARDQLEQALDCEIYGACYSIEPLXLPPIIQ

[22] = target: T1, Non-structural protein 4b; assay: Inhibition of Hepatitis C virus genotype 4a NS4B
[23] = target: T1, Non-structural protein 4b; assay: Binding affinity to Hepatitis C virus genotype 3a NS4B assessed as inhibition constant
[24] = target: T1, Non-structural protein 4b; assay: Inhibition of Hepatitis C virus genotype 6a NS4B
[25] = target: T1, Non-structural protein 4b; assay: Inhibition of Hepatitis C virus genotype 3a NS4B
[26] = target: T1, Non-structural protein 4b; assay: Binding affinity to Hepatitis C virus genotype 1a NS4B assessed as inhibition constant
[27] = target: T1, Non-structural protein 4b; assay: Binding affinity to Hepatitis C virus genotype 4a NS4B assessed as inhibition constant
Hepatitis C virus [28] = assay: Antiviral activity against HCV assessed as inhibition of RNA replication; format: functional, organism-based, Hepacivirus hominis
[29] = target: T1, Non-structural protein 4b; assay: Inhibition of Hepatitis C virus genotype 2b NS4B
[30] = target: T1, Non-structural protein 4b; assay: Binding affinity to Hepatitis C virus genotype 6a NS4B assessed as inhibition constant
[31] = target: T1, Non-structural protein 4b; assay: Inhibition of Hepatitis C virus genotype 1a NS4B
[32] = target: T1, Non-structural protein 4b; assay: Binding affinity to Hepatitis C virus genotype 1b NS4B assessed as inhibition constant
[33] = target: T1, Non-structural protein 4b; assay: Inhibition of Hepatitis C virus genotype 3a NS4B expressed in Escherichia coli
SARS-CoV-2 = assay: Antiviral activity against SARS-CoV-2 infected in African green monkey Vero cells assessed as reduction in viral replication measured after 72 hrs by qRT-PCR analysis; format: functional, organism-based; settings: Severe acute respiratory syndrome coronavirus 2, Vero
RNA = assay: Inhibition of Hepatitis C virus RNA; format: nucleic-acid assay, Hepacivirus hominis
[34] = target: T1, Non-structural protein 4b; assay: Binding affinity to Hepatitis C virus genotype 2b NS4B assessed as inhibition constant
[35] = AUC in Sprague-Dawley rat plasma […] at 10 mg/kg, po administered via gavage by LC-MS/MS analysis; format: ADME, organism-based; settings: in vivo
[36] = Half life in Cynomolgus monkey at 1.0 mg/kg,iv or 1.25 mg/kg, po; format: ADME, organism-based, Macaca fascicularis; settings: in vivo
[37] = Half life in human liver microsomes at 1 uM by LC-MS/MS analysis; format: ADME, Microsome

Compound: C=C[C@@H]1C[C@]1(NC(=O)[C@@H]1C[C@@H](Oc2cc(-c3csc(NC(=O)C(C)C)n3)nc3c(Br)c(OC)ccc23)CN1C(=O)[C@@H](NC(=O)OC1CCCC1)C(C)(C)C)C(=O)O
- Vd [1]: 1.2 L/kg
- AUC [2]: 40 µM·h
- AUC [3]: 13 µM·h
- bioavailability [4]: 40%
- half-life [5]: 72 min
- clearance [6]: 20 mL/min/kg
- Cmax [7]: 400 nM
- AUC [8]: 1.55 µM·h

Compound: CCC[C@H](NC(=O)[C@@H]1[C@H]2CCC[C@H]2CN1C(=O)[C@@H](NC(=O)[C@@H](NC(=O)c1cnccn1)C1CCCCC1)C(C)(C)C)C(=O)C(=O)NC1CC1
- clearance [9]: 42 mL/min/kg
- clearance [10]: 54 mL/min/kg
- bioavailability [11]: 25%
- AUC [12]: 40.7 µM·h
- bioavailability [13]: 40.7%
- AUC [14]: 3.34 µM·h
- IC50 [15]: 354 nM
- EC50 (Hepatitis C virus [16]): 15 nM

Compound: COc1ccc2c(O[C@@H]3C[C@H]4C(=O)N[C@]5(C(=O)NS(=O)(=O)C6CC6)C[C@H]5/C=C\CCCCC[C@H](CC(=O)N5CCCC(F)(F)C5)C(=O)N4C3)cc(-c3nc(C(C)C)cs3)nc2c1C
- EC50 (Hepatitis C virus [17]): 0.04 nM
- EC50 (Hepatitis C virus [18]): 0.7 nM

Compound: CC(C)(C)[C@@H]1NC(=O)O[C@@H]2CCC[C@H]2OC/C=C/C(F)(F)c2nc3ccccc3nc2O[C@@H]2C[C@@H](C(=O)N[C@]3(C(=O)NS(=O)(=O)C4(C)CC4)C[C@H]3C(F)F)N(C2)C1=O
- half-life [19]: 0.025 days
- IC50 [20]: 8.1 nM
- Ki [21]: 0.053 nM
- IC50 [22]: 6.1 nM
- Ki [23]: 0.96 nM
- IC50 [24]: 11.3 nM
- IC50 [25]: 7.9 µM
- Ki [26]: 0.075 nM
- Ki [27]: 0.92 nM and 0.092 nM
- half-life [5]: 168 min
- EC50 (Hepatitis C virus [28]): 0.24 nM
- IC50 [29]: 3.8 nM
- bioavailability [11]: 90%
- bioavailability [13]: 95%
- AUC [14]: 22 µM·h
- Ki [30]: 0.11 nM
- IC50 [31]: 4.4 nM
- IC50 [15]: 8.9 nM
- Ki [32]: 0.063 nM

Compound: CC(C)Oc1ccc(-c2nc(O[C@@H]3C[C@H]4C(=O)N[C@]5(C(=O)NS(=O)(=O)C6(C)CC6)C[C@H]5/C=C\CCCCC[C@H](NC(=O)OC5CCCC5)C(=O)N4C3)c3oc4ccccc4c3n2)cc1
- IC50 [20]: 0.6 nM
- IC50 [22]: 0.6 nM
- EC50 [33]: 1.6 nM
- IC50 [24]: 0.6 nM
- IC50 [25]: 0.6 µM
- EC50 (SARS-CoV-2): 1.6 nM
- IC50 [31]: 0.6 nM
- IC50 [15]: 0.6 nM

Compound: COc1cnc(O[C@@H]2C[C@H]3C(=O)N[C@]4(C(=O)NS(=O)(=O)C5CC5)CC4/C=C\CCCCC[C@H](NC(=O)OC(C)(C)C)C(=O)N3C2)c2cc(Cl)ccc12 (stereo partly drawn)
- IC50 [33]: 51 nM

Compound: Cc1ccc2nc(-c3ccc4nc(-c5ccc(NC(=O)c6cc(C(F)(F)F)cc(C(F)(F)F)c6)cc5)sc4c3)sc2c1S(=O)(=O)O
- IC50 (RNA): 5 nM

Compound: CC(C)(C)NC(=O)N[C@H](C(=O)N1C[C@H]2[C@@H]([C@H]1C(=O)NC(CC1CCC1)C(=O)C(N)=O)C2(C)C)C(C)(C)C (stereo partly drawn) [BOCEPREVIR]
- Ki [23]: 6 nM
- Ki [26]: 6 nM
- Ki [34]: 6 nM

Compound: C=C[C@@H]1C[C@]1(NC(=O)[C@@H]1C[C@@H](Oc2cc(-c3ccccc3)nc3cc(OC)ccc23)CN1C(=O)[C@@H](CC(=O)N1CCCCC1)C(C)(C)C)C(=O)NS(=O)(=O)C1CC1 [SOVAPREVIR]
- half-life [19]: 4.79 days
- AUC [35]: 339 µM·h
- AUC [2]: > 505 µM·h
- half-life [36]: 624 min
- half-life [5]: > 5400 min
- half-life at 1 µM [37]: 106 min
- IC50 [31]: 11 nM
- Ki [32]: 0.06 nM

— ChEMBL document CHEMBL5537165, “Hepatitis C: The Story of a Long Journey through First, Second, and Third Generation NS3/4A Peptidomimetic Inhibitors. What Did We Learn?” (J Med Chem, 2024)
